28 compounds from patent publication US6506756B2, “Substituted imidazoles as dual histamine H1 and H3 agonists or antagonists” (Schering Corporation, priority 2000, dated 2003) can be followed below.

Counter-ions that a name gives are not always drawn.

Data set [1] addresses T1, H3 receptors (Cavia porcellus, UniProt Q9JI35).
T1 construct: The source of the H3 receptors in this experiment was guinea pig brain; from tissue; host or cells: guinea pig brain membranes
The data set can be described thus: H3-receptor binding assay (guinea pig brain membranes, [3H]R-α-methyl histamine or [3H]Nα-methyl histamine). To be noted: for Ki: HCl salt of the indicated compound, read-out: H3 Ave Ki; for inhibition at 2 µg/mL: final concentration 2 μg/ml, HCl salt. As to the method:
General Procedure for H3-Receptor Binding Assay
The source of the H3 receptors in this experiment was guinea pig brain. The animals weighed 400-600 g. The brain tissue was homogenized with a solution of 50 mM Tris, pH 7.5. The final concentration of tissue in the homogenization buffer was 10% w/v. The homogenates were centrifuged at 1,000×g for 10 min. in order to remove clumps of tissue and debris. The resulting supernatants were then centrifuged at 50,000×g for 20 min. in order to sediment the membranes, which were next washed three times in homogenization buffer (50,000×g for 20 min. each). The membranes were frozen and stored at −70° C. until needed.
All compounds to be tested were dissolved in DMSO and then diluted into the binding buffer (50 mM Tris, pH 7.5) such that the final concentration was 2 μg/ml with 0.1% DMSO. Membranes were then added (400 μg of protein) to the reaction tubes. The reaction was started by the addition of 3 nM [^3H]R-α-methyl histamine (8.8 Ci/mmol) or 3 nM [^3H]N^α-methyl histamine (80 Ci/mmol) and continued under incubation at 30° C. for 30 min. Bound ligand was separated from unbound ligand by filtration, and the amount of radioactive ligand bound to the membranes was quantitated by liquid scintillation spectrometry. All incubations were performed in duplicate and the standard error was always less than 10%. Compounds that inhibited more than 70% of the specific binding of radioactive ligand to the receptor were serially diluted to determine a Ki (nM). The results are given in the Table 1 for the HCl salt of the indicated compound.

The target in data set [2] is T2, Histamine H1 receptor (Rattus norvegicus, UniProt P31390).
T2 construct: The tissue source was male Sprague-Dawley rat brain; tissue Rockland Corporation, Gilbertsville, Pa; host or cells: male Sprague-Dawley rat brain membranes
The experiment in a line: H1-receptor binding assay (rat brain membranes, [3H]pyrilamine). The settings on record: for Ki: Cheng-Prusoff from IC50, HCl salt, read-out: H1 Ave Ki; for inhibition at 1 µg/mL: concentration not given (top test concentration 1 μg/ml), HCl salt. The text has this:
General Procedure for H1-Receptor Binding Assay
The procedure used was based on that disclosed in V.T. Tran et al, “Histamine H1 receptors identified in mammalian brain membranes with [H-3]mepyramine”, Proc. Natl. Acad. Sci. U.S.A. 75 (1978) 6290-6294.
I. Tissue Preparation Protocol for Histamine H1 Receptor Binding Assay:
1. The tissue source was male Sprague-Dawley rat brain. These were purchased, stripped and frozen (available from Rockland Corporation, Gilbertsville, Pa.). The buffer used was ice-cold 50 mM Tris-HCl, pH 7.5. (The pH was determined at 25° C.)
2. The brains were spread out on plastic wrap on the benchtop and allowed to thaw for 10-15 min. After this, everything was kept ice-cold.
3. Two brains were put in each 50 ml round bottom centrifuge tube and 25 ml of buffer was added. Then they were broken up with a Polytron (from Brinkmann Instruments, Westbury, N.Y.) equipped with a PT-10 tip at setting 6 for 30 sec.
4. The volume in the tube was brought up to 45 ml and mixed and the particulate material was centrifuged at 1000×g (3000 rpm, SS-34 rotor) for 10 min to remove nuclei and unbroken cells.
5. Pellets were discarded and the supernatants were centrifuged 10 min at 50,000×g (20,000 rpm, SS-34 rotor).
6. The high-speed pellets were resuspended in a volume of Tris buffer equal to the original ([…]), the contents of all tubes were pooled, and a sample was taken for BCA protein assay. The material was aliquotted, 45 ml per round-bottom tube, and the resuspension was recentrifuged. The yield of protein was approximately 20 mg/brain, so there was about 40 mg of protein per tube.
7. Pellets were frozen at −80° C.
1. FDCL and comparative compounds for assay were independently solubilized at 1mg/ml DMSO by vortexing, or if necessary by sonication. The first dilution, 100-fold, was made in 50 mM Tris-HCl, pH 7.5, at room temperature. The three or four subsequent ten-fold serial dilutions were made in 1% DMSO/50 mM Tris-HCl, pH 7.5. Drug solutions and assay plates were kept at room temperature during the course of the assay set up.
2. Test compounds were assayed at four or five concentrations: 1, 0.1, 0.01, 0.001, and 0.0001 μg/ml. Twenty μl of drug solution was pipeted into each of three wells.
3. [^3H]Pyrilamine was diluted approximately 2000-fold with ice-cold […] Tris-HCl, pH 7.5 (to a working concentration of 20-25 nM), and put on ice.
4. A frozen tissue pellet was thawed in a 25° C. water bath, resuspended in 50 mM Tris-HCl, pH 7.5, at 1.7-2 mg/ml by brief break-up on the Polytron, and put on ice.
5. Twenty μl of diluted [^3H]pyrilamine was added to each well.
6. One hundred fifty μl of tissue suspension was added to each well.
7. The top of the plate was covered and it was placed in a 25° C. shaking water bath (about 60 oscillations/min) for 30 min.
8. Samples were filtered on a Tomtec Mach 2 harvester (available from Tomtec Corporation, Orange, Conn.) through a GF/B filter mat (from Wallac, Inc., Gaithersburg, Md.) presoaked in 0.3% polyethylenimine. Each sample was thrice washed with ice-cold 50 mM Tris-HCl, pH 7.5 dried 20 sec on the Tomtec, and dried 3-4 min in a microwave oven on a paper towel. The filter was impregnated with MELTILEX brand wax scintillant (from Wallac Corporation) and counted on a Betaplate scintillation counter (from Wallac Corporation).
9. Specific binding was determined as the difference between total and nonspecific binding. The percent inhibition in the presence of inhibitor or standard was determined using the formula: [1-(sample binding-nonspecific binding)/specific binding]×100 For compounds that inhibit more than 50% at 1 μg/ml, an IC50 value was interpolated from proximate concentrations. […]

T1 sequence (Q9JI35 whole entry): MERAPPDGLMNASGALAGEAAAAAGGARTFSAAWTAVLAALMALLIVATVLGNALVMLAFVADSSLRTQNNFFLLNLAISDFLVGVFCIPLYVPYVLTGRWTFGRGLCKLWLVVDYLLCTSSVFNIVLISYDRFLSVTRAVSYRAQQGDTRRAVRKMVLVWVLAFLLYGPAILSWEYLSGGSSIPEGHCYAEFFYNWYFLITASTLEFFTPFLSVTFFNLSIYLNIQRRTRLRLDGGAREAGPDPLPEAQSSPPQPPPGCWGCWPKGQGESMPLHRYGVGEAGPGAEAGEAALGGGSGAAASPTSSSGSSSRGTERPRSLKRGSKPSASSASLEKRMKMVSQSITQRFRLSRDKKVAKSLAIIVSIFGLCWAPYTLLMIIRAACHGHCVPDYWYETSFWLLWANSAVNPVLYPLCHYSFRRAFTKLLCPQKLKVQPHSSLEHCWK
T2 sequence (P31390 whole entry): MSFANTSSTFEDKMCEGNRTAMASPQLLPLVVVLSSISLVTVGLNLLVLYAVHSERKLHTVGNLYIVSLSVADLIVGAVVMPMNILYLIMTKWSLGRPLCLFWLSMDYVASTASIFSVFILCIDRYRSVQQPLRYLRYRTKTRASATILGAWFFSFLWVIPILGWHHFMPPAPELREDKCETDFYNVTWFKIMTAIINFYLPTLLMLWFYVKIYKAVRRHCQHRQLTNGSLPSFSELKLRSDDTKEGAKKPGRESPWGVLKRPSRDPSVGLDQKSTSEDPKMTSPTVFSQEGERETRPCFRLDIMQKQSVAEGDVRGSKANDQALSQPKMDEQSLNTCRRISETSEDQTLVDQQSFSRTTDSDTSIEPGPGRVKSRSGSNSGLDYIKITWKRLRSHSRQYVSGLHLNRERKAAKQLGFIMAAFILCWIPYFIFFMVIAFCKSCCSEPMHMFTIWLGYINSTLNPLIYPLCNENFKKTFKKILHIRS

In the case of `Clc1ccc2c(c1)CCc1cccnc1C2N1CCN(CCCCCc2c[nH]cn2)CC1` (centres unmarked), the figures for the Ki in data set [1] and in data set [2] were 32 nM and 12.5 nM, respectively. With `O=C(OCCCCc1c[nH]cn1)N1CCN(C2c3ccc(Cl)cc3CCc3cccnc32)CC1` (centres unmarked), the Ki in data set [1] came out at 148 nM. The inhibition at 1 µg/mL in data set [2] came to 36%.

Consider `O=C(CCc1c[nH]cn1)N1CCC(=C2c3ccc(Cl)cc3CCc3cccnc32)CC1`, for which the inhibition at 2 µg/mL in data set [1] is 47%. In the case of `Clc1ccc2c(c1)CCc1cccnc1C2N1CCN(Cc2c[nH]cn2)CC1` (single isomer, unassigned; (-)) [(−)-(8-Chloro-6,11-dihydro-5H-benzo[5,6]cyclohepta[1,2-b]pyridin-11-yl)-4-[(1H-imidazol-4-yl)methyl]-piperazine], the Ki in data set [1] stood at 133 nM; in data set [2], 15.4 nM.

As for `Clc1ccc2c(c1)CCc1cccnc1C2C1CCN(CCCCCc2c[nH]cn2)CC1` (centres unmarked) (as salt: hydrochloride) [Example 13, 8-chloro-6,11-dihydro-11-[1-[5-(1H-imidazol-4-yl)pentyl]-4-piperidinyl]-5H-benzo[5,6]cyclohepta[1,2-b]pyridine], the melting point was 164 to 170 °C (dec.). With `Clc1ccc2c(c1)CCc1cccnc1C2C1CCN(CCCCCCc2c[nH]cn2)CC1` (centres unmarked), the Ki in data set [1] came to 27.5 nM; in data set [2] it was 5.5 nM. On to `O=C(CCc1c[nH]cn1)N1CCN(C2c3ccc(Cl)cc3CCc3cccnc32)CC1` (centres unmarked), for which, in data set [1], the inhibition at 2 µg/mL came out at 44%. In addition, the inhibitory constant (Ki) in data set [2] was 200 nM. Take `Clc1ccc2c(c1)CCc1cccnc1C2=C1CCN(CCCCc2c[nH]cn2)CC1`: the Ki was 25.2 nM in data set [1] and 10.5 nM in data set [2]. Turning to `Clc1ccc2c(c1)CCc1cccnc1C2C1CCN(Cc2c[nH]cn2)CC1` (single isomer, unassigned) [drawing 60], the inhibition at 2 µg/mL in data set [1] was found to be 15%. In data set [2], the inhibitory constant (Ki) is 1.2 nM. Take `Clc1ccc2c(c1)CCc1cccnc1C2N1CCN(CCCCc2c[nH]cn2)CC1` (centres unmarked): the Ki in data set [1] is 68.5 nM; in data set [2], 31.5 nM.

`Clc1ccc2c(c1)CCc1cccnc1C2=C1CCN(CCCc2c[nH]cn2)CC1`: the inhibition constant Ki worked out at 260 nM in data set [1] and 4.1 nM in data set [2]. On to `Clc1ccc2c(c1)CCc1cccnc1C2N1CCN(Cc2c[nH]cn2)CC1` (racemic) (as salt: HCl) (hydrate or solvate) [1-(8-Chloro-6,11-dihydro-5H-benzo[5,6]cyclohepta[1,2-b]pyridin-11-yl)-4-[(1H-imidazol-4-yl)-methyl]-piperazine], for which the melting point is 190.5 to 192 °C (dec.). Take `Clc1ccc2c(c1)CCc1cccnc1C2=C1CCN(CCCCCCc2c[nH]cn2)CC1`: the Ki in data set [1] was 33.5 nM; in data set [2], 12 nM. As to `Clc1ccc2c(c1)CCc1cccnc1C2C1CCN(Cc2c[nH]cn2)CC1` (single isomer, unassigned) [drawing 61], the Ki in data set [1] was determined as 91 nM; in data set [2] it was 182 nM.

For `Clc1ccc2c(c1)CCc1cccnc1C2=C1CCN(Cc2c[nH]cn2)CC1`, the Ki came out at 660 nM in data set [1] and 16 nM in data set [2]. With `Clc1ccc2c(c1)CCc1cccnc1C2C1CCN(CCCCc2c[nH]cn2)CC1` (centres unmarked), the results for the Ki in data set [1] and in data set [2] were 42 nM and 14.3 nM, respectively.

Consider `Clc1ccc2c(c1)CCc1cccnc1C2=C1CCN(CCCCCc2c[nH]cn2)CC1`, for which the Ki worked out at 26.5 nM in data set [1] and 2.5 nM in data set [2]. Regarding `Cn1cnc(CN2CCN(C3c4ccc(Cl)cc4CCc4cccnc43)CC2)c1` (centres unmarked), in data set [1], the inhibition at 2 µg/mL was found to be 5%. Also, in data set [2], the inhibitory constant (Ki) came out at 24 nM and the inhibition at 1 µg/mL came to 84%. As to `Clc1ccc2c(c1)CCc1cccnc1C2N1CCN(CCCCc2c[nH]cn2)CC1` (centres unmarked) (as salt: HCl) [Example 12, 8-Chloro-6,11-dihydro-11-[4-[4-(1H-imidazol4-yl)butyl]-1-piperazinyl]-5H-benzo[5,6]cyclohepta[1,2-b]pyridine], the melting point is 165 to 170 °C (dec.).

On to `Clc1ccc2c(c1)CCc1cccnc1C2N1CCN(CCc2c[nH]cn2)CC1` (centres unmarked), for which the inhibition at 2 µg/mL in data set [1] was determined as 53%. In addition, the Ki in data set [2] worked out at 5.6 nM. Regarding `O=C(c1c[nH]cn1)N1CCN(C2c3ccc(Cl)cc3CCc3cccnc32)CC1` (centres unmarked), the inhibition at 2 µg/mL in data set [1] is 18%. Moreover, in data set [2], the Ki is 300 nM and the inhibition at 1 µg/mL came out at 42%. Consider `Clc1ccc2c(c1)CCc1cccnc1C2N1CCN(Cc2c[nH]cn2)CC1` (racemic) [1-(8-Chloro-6,11-dihydro-5H-benzo[5,6]cyclohepta[1,2-b]pyridin-11-yl)-4-[(1H-imidazol-4-yl)-methyl]-piperazine], for which the Ki in data set [1] was found to be 150 nM; in data set [2], 36.8 nM.

`O=C(NCCCCc1c[nH]cn1)N1CCN(C2c3ccc(Cl)cc3CCc3cccnc32)CC1` (centres unmarked): the inhibitory constant (Ki) came to 47 nM in data set [1] and 250 nM in data set [2]. On to `Clc1ccc2c(c1)CCc1cccnc1C2C1CCN(CCCCCc2c[nH]cn2)CC1` (centres unmarked), for which the inhibition constant (Ki) turned out to be 22.5 nM in data set [1] and 7 nM in data set [2]. As for `Clc1ccc2c(c1)CCc1cccnc1C2N1CCN(Cc2c[nH]cn2)CC1` (single isomer, unassigned; (+)) [(+)-(8-Chloro-6,11-dihydro-5H-benzo[5,6]cyclohepta[1,2-b]pyridin-11-yl)-4-[(1H-imidazol-4-yl)methyl]-piperazine], the Ki in data set [1] is 121 nM; in data set [2] it was 4.6 nM. `Clc1ccc2c(c1)CCc1cccnc1C2=C1CCN(CCCCCCc2c[nH]cn2)CC1` (as salt: hydrochloride) (hydrate or solvate) [Example 14, 8-Chloro-6,11-dihydro-11-[1-[6-(1H-imidazol-4-yl)hexyl]-4-piperidinylidene]-5H-benzo[5,6]cyclohepta[1,2-b]pyridine]: the melting point is 162 to 165 °C (dec.). As for `Clc1ccc2c(c1)CCc1cccnc1C2N1CCN(CCCCCCc2c[nH]cn2)CC1` (centres unmarked), the Ki in data set [1] is 41 nM; in data set [2], 8 nM. `Clc1ccc2c(c1)CCc1cccnc1C2N1CCN(CCCc2c[nH]cn2)CC1` (centres unmarked): the results for the Ki in data set [1] and in data set [2] were 173 nM and 7.5 nM, respectively.
